These results are taken from patent US6949648B2, “Condensed pyrazole derivatives, process for producing the same and use thereof” (Takeda Pharmaceutical Company Limited, priority 2000, dated 2005).

The structures appear in SMILES notation. Marks after values point to notes of the source that are not given here.

The target in one data set is T1, human COX-1 (Homo sapiens, UniProt P23219).
T1 construct: made in house; host or cells: Sf-21 insect cells (recombinant baculovirus BAC-COX1, pFASTBAC1); microsome fraction
T1 sequence (P23219 24-599): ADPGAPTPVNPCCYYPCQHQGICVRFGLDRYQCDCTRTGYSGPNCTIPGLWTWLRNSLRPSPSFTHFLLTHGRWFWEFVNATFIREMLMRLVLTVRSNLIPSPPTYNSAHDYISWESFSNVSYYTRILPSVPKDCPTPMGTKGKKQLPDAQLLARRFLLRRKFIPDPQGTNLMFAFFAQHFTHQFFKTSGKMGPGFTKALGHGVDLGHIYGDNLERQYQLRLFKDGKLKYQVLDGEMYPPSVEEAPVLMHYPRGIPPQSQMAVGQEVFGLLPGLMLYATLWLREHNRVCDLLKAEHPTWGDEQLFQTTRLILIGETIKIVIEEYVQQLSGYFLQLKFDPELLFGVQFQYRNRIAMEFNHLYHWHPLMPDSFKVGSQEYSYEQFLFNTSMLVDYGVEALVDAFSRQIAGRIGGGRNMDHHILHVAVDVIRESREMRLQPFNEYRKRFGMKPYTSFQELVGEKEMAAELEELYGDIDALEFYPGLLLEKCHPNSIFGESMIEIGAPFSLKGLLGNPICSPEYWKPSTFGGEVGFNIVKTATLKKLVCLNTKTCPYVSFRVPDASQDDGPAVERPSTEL
As to the kind of experiment: Determination of COX-1 inhibitory activity (microsome fraction, chemiluminescence). The following applies: microsome fraction 40 μg, arachidonic acid, 37° C. 25 minutes preincubation; read-out: Repression rate IC50 (μM) COX-1. The data set is classed as biochemical. The procedure: A 1.8 kb DNA fragment containing human COX-1 cDNA (FASEB J., vol. 5 (9), p. 2304-2312 (1991)) prepared by the PCR method was inserted into plasmid pFASTBAC1 (CIBCOBRL) to obtain a plasmid pFBCOX1.
Using the plasmid pFBCOX1 and BAC-TO-BAC Baculovirus Expression System (GIBCOBRL), a virus stock BAC-COX1 of the recombinant baculovirus was prepared.
Sf-21 cells were inoculated in 125 mL of Sf-900 II SFM medium (GIBCOBRL) at a concentration of 1×10^6 cells/mL, and the medium was incubated at 27° C. for 24 hours. 0.75 mL of the virus stock BAC-COX1 of the recombinant baculovirus was added thereto, and the mixture was incubated further for 72 hours. The cells were separated from the medium by centrifugation (3000 rpm, 10 min), and washed with PBS twice. The cells were suspended in 10 mL of a Lysis buffer (0.1M Tris-HCl (pH 7.4), 5 mM EDTA), and were treated with a homogenizer (POLYTRON) three times at 20000 rpm for 20 seconds so that the cells were crushed. The supernatant obtained after centrifugation (2000 rpm, 10 minutes) was further centrifuged (40000 rpm, 45 minutes) to give a precipitate, which was resuspended in a Lysis buffer (0.1M Tris-HCl (pH 7.4), 5 mM EDTA), and the suspension was stored at −80° C.
Determination of COX-1 and COX-2 Inhibitory Activities
To a mixture of 20 μL of a reaction buffer previously concentrated 10 times (1M Tris-HCl (pH8.0), 50 mM EDTA, 1.0% Tween 20, 50 mM luminol, 100 μM hematin), 20 μL of the microsome fractions (COX-1: 40 μg, COX-2: 20 μg), and 55 μL of distilled water, a sample compound dissolved in DMF (5 μL) was added, and the mixture was left at 37° C. for 25 minutes. The reaction was started by the addition of 20 μM arachidonic acid (100 μL), and chemiluminescence amount during the 10-second period after the addition of arachidonic acid was determined by the use of Lumistar (BMG Lab technologies, GmbH). The inhibition rate was calculated, regarding that the enzyme activity when DMF ([…]) was added was 100%, and the enzyme activity when 4 mM flurbiprofen (5 μL) was added was 0%.

The test system of data set [1] is acetic acid induced rising and stretching. Briefly: Analgesic activity, acetic acid rising method. In kind it is in vivo, ICR-mice. The following applies: po, 20 min; 10 mg/kg orally, 30 minutes before 0.6% acetic acid i.p.; number of rising and stretching in 20 minutes; read-out: Repression rate (%) Dosage 10 mg/kg. In outline: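 Male ICR mice (5 weeks, n=10/group) dosed orally; 30 min later injected i.p. with 0.6% acetic acid. Rising and stretching counted over 20 min; repression rate (%) from group mean counts versus controls.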

The next data set relates to gastric mucosa. As to the kind of experiment: Disorder of gastric mucosa. The data set is classed as in vivo, SD rats. Particulars: stomach, 300 mg/kg orally, fasted rats, 6 hours after dosing. As for the experimental part:
Disorder of Gastric Mucosa
Male SD origin male-rats (7 weeks old, CLEA Japan) were used. After 24 hours from the termination of food supply, samples were orally administered (5 mL/kg, b.w.). After 5.5 hours, Evan's Blue (0.5% Evan's Blue/saline) was injected intravenously (1 mL/rat) under no anesthesia. After 30 minutes from the shot, the stomach (with esophagus and duodenum of 1.5 to 2 cm length) was removed by celiotomy, and subsequently, the esophagus terminal was closed with a clip, and a 8 mL of 1% formalin solution was injected into the stomach through the duodenum, which was also closed with a clip after the injection. The stomach was left contacting with the 1% formalin solution for more than 10 minutes, and subsequently cut open from duodenum along the greater curvature of stomach. The stomach was washed and spread on a filter paper, and the length of each of the spots dyed by Evan's Blue (hemorrhagic portion: mucosal ablation to ulcer) was measured under a stereomicroscope, and the total length (mm) was calculated by a counter and recorded.

The subject of another data set is adjuvant arthritis. As to the kind of experiment: Anti-adjuvant-arthritic activity. In kind it is in vivo, SD rats. The following applies: 10 mg/kg orally once a day for 14 days; volume of left hind limb (not injected); day of reading not given. As for the experimental part:
Anti-Adjuvant-Arthritic Activity
Male SD origin male-rats (6 weeks old, CLEA Japan, 1 group: n=7) were used. The adjuvant arthritis method was conducted according to the method of Newbould B. B. et. al., (Brit. J. Pharmacol. Chemother., vol. 21, p. 127, 1963). Complete Freund's adjuvant (a suspension of killed tubercule bacillus in liquid paraffin at a concentration of 0.5%, 0.05 mL) was injected into the right hind limb footpad intracutaneouly to induce multiple arthritis. Samples were administered orally (10 mg/kg, b.w.), once a day for 14 days from the day before the injection day 0 to day 13. Volume of the left hind limb (not injected) was determined by the foot-volume measurement apparatus manufactured by Ugo Basile, on the day just before the adjuvant shot (Day 0), Day 10 and Day 14, and repression rate (%) was calculated comparing the values between the sample group and the control group.

As a reminder, the IC50 is the point on the concentration scale where inhibition reaches its midpoint.

As to `O=c1c2ccccc2[nH]c2c1cnn2-c1ccccn1` [Example 2-159, 1-(2-Pyridinyl)-1,9-dihydro-4H-pyrazolo[3,4-b]quinolin-4-one], the IC50 at human COX-1 was 2.66 µM. Besides, the inhibition in vivo at 10 mg/kg in data set [1] is 69%. Besides, the “Total length of dyed spots (mm)” value with gastric mucosa was 0 (300 mg/kg) mm.
With `Cc1nn(-c2ccccn2)c2[nH]c3cccc(F)c3c(=O)c12.Cl` [Example 2-79, 5-Fluoro-3-methyl-1-(2-pyridinyl)-1,9-dihydro-4H-pyrazolo[3,4-b]quinolin-4-one hydrochloride], the IC50 at human COX-1 turned out to be 7.8 µM. Further, in data set [1], the inhibition in vivo at 10 mg/kg was determined as 38%. Also, the “Total length of dyed spots (mm)” value with gastric mucosa is 0 (300 mg/kg) mm.
With `Cc1nn(-c2ccccn2)c2nc3ccccc3c(OC3CCCC3)c12` [Example 2-21, 4-Cyclopentyloxy-3-methyl-1-(2-pyridinyl)-1H-pyrazolo[3,4-b]quinoline], the IC50 on human COX-1 turned out to be 4.21 µM. The inhibition in vivo at 10 mg/kg in data set [1] was found to be 56%.
With `CCCNc1c2ccccc2nc2c1c(C)nn2-c1ccccn1` [Example 2-6, N-[3-Methyl-1-(2-pyridinyl)-1H-pyrazolo[3,4-b]quinolin-4-yl]-N-propylamine], on human COX-1, the IC50 came out at 21.7 µM. Besides, the inhibition in vivo at 10 mg/kg in data set [1] is 57%.
Regarding `CCCOc1c2ccccc2nc2c1c(C)nn2-c1ccccn1` [Example 2-17, 3-Methyl-4-propoxy-1-(2-pyridinyl)-1H-pyrazolo[3,4-b]quinoline], the IC50 at human COX-1 came to 7.28 µM. Besides, in data set [1], the inhibition in vivo at 10 mg/kg was determined as 49%. The “Repression rate (%) Dosage 10 mg/kg” value in the data set on adjuvant arthritis was 61* %.
